Results taken from patent US20230192705A1, “SHP2 INHIBITORS, COMPOSITIONS AND USES THEREOF” (Betta Pharmaceuticals Co., Ltd, priority 2020, published 2023).

Target: T1, SHP2 (Homo sapiens, UniProt Q06124)
T1 sequence (Q06124 1-593): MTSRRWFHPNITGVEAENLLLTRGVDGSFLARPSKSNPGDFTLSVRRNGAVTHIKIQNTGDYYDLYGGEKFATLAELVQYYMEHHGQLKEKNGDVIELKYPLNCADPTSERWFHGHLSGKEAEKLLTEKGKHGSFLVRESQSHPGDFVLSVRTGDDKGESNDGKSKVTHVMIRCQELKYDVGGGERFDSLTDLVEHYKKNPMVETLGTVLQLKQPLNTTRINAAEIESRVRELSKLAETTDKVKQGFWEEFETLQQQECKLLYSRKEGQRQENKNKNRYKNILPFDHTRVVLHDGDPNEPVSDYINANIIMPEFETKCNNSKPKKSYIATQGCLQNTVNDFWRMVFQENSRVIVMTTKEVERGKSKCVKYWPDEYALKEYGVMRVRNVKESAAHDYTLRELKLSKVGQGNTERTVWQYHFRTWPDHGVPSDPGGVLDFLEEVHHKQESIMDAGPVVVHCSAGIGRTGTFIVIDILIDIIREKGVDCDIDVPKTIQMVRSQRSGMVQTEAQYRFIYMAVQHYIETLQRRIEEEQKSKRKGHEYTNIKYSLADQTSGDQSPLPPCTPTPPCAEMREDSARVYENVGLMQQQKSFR
Test: SHP2 allosteric inhibitor enzyme activity assay (DiFMUP fluorescence)
Type: biochemical
Settings: class symbols
Method in brief: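 SHP2 activated by 0.5 μM IRS1_pY1172(dPEG8)pY1222 peptide, 0.2 ng enzyme per well, 1 h at room temperature with compound (1 μM top, 3-fold series), then DiFMUP substrate 1 h. Buffer: 60 mM HEPES, 75 mM NaCl, 75 mM KCl, 0.05% BRIJ-35, 1 mM EDTA, 5 mM DTT. Fluorescence ex 340/em 450 nm; IC50 by variable-slope fit.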

Structure (SMILES) | IC50 [nM]
N[C@@H]1c2ccccc2CC12CCN(c1nc3[nH]nc(C4(c5ccnc(NC6CC6)c5Cl)CC4)c3c(=O)[nH]1)CC2 [Example 72, (S)-6-(1-amino-1,3-dihydrospiro[indene-2,4′-piperidin]-1′-yl)-3-(1-(3-chloro-2-(cyclopropylamino)pyridin-4-yl)cyclopropyl)-1,5-dihydro-4H-pyrazolo[3,4-d]pyrimidin-4-one] | ≤ 20
N[C@@H]1c2ccccc2CC12CCN(c1nc3[nH]nc(C4=CCC(F)(F)c5ncccc54)c3c(=O)[nH]1)CC2 [Example 169, (S)-6-(1-amino-1,3-dihydrospiro[indene-2,4′-piperidin]-1′-yl)-3-(8,8-difluoro-7,8-dihydroquinolin-5-yl)-1,5-dihydro-4H-pyrazolo[3,4-d]pyrimidin-4-one] | ≤ 20
N[C@@H]1c2ccccc2CC12CCN(c1nc3[nH]nc(C4(c5cocn5)CC4)c3c(=O)[nH]1)CC2 [Example 85, (S)-6-(1-amino-1,3-dihydrospiro[indene-2,4′-piperidin]-1′-yl)-3-(1-(oxazol-4-yl)cyclopropyl)-1,5-dihydro-4H-pyrazolo[3,4-d]pyrimidin-4-one] | ≤ 20
N[C@@H]1c2ccccc2CC12CCN(c1nc3[nH]nc(C4CCCCc5ccccc54)c3c(=O)[nH]1)CC2 (stereo partly drawn) [Example 110, 6-((S)-1-amino-1,3-dihydrospiro[indene-2,4′-piperidin]-1′-yl)-3-(6,7,8,9-tetrahydro-5H-benzo[7]annulen-5-yl)-1,5-dihydro-4H-pyrazolo[3,4-d]pyrimidin-4-one] | ≤ 20
N[C@@H]1c2ccccc2CC12CCN(c1nc3[nH]nc(C4(c5ccnnc5)CC4)c3c(=O)[nH]1)CC2 [Example 71, (S)-6-(1-amino-1,3-dihydrospiro[indene-2,4′-piperidin]-1′-yl)-3-(1-(pyridazin-4-yl)cyclopropyl)-1,5-dihydro-4H-pyrazolo[3,4-d]pyrimidin-4-one] | ≤ 20
N[C@@H]1c2ccccc2CC12CCN(c1nc3[nH]nc(C4(c5ccccc5)CC4)c3c3nncn13)CC2 [Example 3] | ≤ 20
N[C@@H]1c2ccccc2CC12CCN(c1nc3[nH]nc(C4=CCC(F)(F)c5ccccc54)c3c(=O)[nH]1)CC2 [Example 123, (S)-6-(1-amino-1,3-dihydrospiro[indene-2,4′-piperidin]-1′-yl)-3-(4,4-difluoro-3,4-dihydronaphtlialen-1-yl)-1,5-dihydro-4H-pyrazolo[3,4-d]pyrimidin-4-one] | ≤ 20
N[C@@H]1c2ccccc2CC12CCN(c1nc3[nH]nc(C4(c5ccnc(N6CCOCC6)c5)CC4)c3c(=O)[nH]1)CC2 [Example 31, (S)-6-(1-amino-1,3-dihydrospiro[indene-2,4′-piperidin]-1′-yl)-3-(1-(2-morpholinopyridin-4-yl)cyclopropyl)-1,5-dihydro-4H-pyrazolo[3,4-d]pyrimidin-4-one] | 20 to 60
Cn1c(N2CCC3(CC2)Cc2ccccc2[C@H]3N)nc2[nH]nc(C3(c4ccccc4)CCC3)c2c1=O [Example 91, (S)-6-(1-amino-1,3-dihydrospiro[indene-2,4′-piperidin]-1′-yl)-5-methyl-3-(1-phenylcyclobutyl)-1,5-dihydro-4H-pyrazolo[3,4-d]pyrimidin-4-one] | ≤ 20
N[C@@H]1c2ccccc2CC12CCN(c1nc3[nH]nc([C@H]4C[C@H]4c4ccccc4)c3c(=O)[nH]1)CC2 [Example 105, 6-((S)-1-amino-1,3-dihydrospiro[indene-2,4′-piperidin]-1′-yl)-3-((1S,2R)-2-phenylcyclopropyl)-1,5-dihydro-4H-pyrazolo[3,4-d]pyrimidin-4-one] | ≤ 20

Now from value to molecule:

IC50 [nM] | Structure (SMILES)
20 to 60 | C[C@@H]1OCC2(CCN(c3nc4[nH]nc(C5(c6ccc7c(c6)OCO7)CC5)c4c(=O)[nH]3)CC2)[C@@H]1N [Example 286, 6-((3S,4S)-4-amino-3-methyl-2-oxa-8-azaspiro[4.5]decan-8-yl)-3-(1-(benzo[d][1,3]dioxol-5-yl)cyclopropyl)-1,5-dihydro-4H-pyrazolo[3,4-d]pyrimidin-4-one]
≤ 20 | N[C@@H]1c2ccccc2CC12CCN(c1nc3[nH]nc(C4(c5cccnc5)CC4)c3c(=O)[nH]1)CC2 [Example 247, (S)-6-(1-amino-1,3-dihydrospiro[indene-2,4′-piperidin]-1′-yl)-3-(1-(pyridin-3-yl)cyclopropyl)-1,5-dihydro-4H-pyrazolo[3,4-d]pyrimidin-4-one]
> 60 | COc1cc(C2(c3n[nH]c4nc(N5CCC6(CC5)CO[C@@H](C)[C@H]6N)[nH]c(=O)c34)CC2)ccc1F [Example 289, 6-((3S,4S)-4-amino-3-methyl-2-oxa-8-azaspiro[4.5]decan-8-yl)-3-(1-(4-fluoro-3-methoxyphenyl)cyclopropyl)-1,5-dihydro-4H-pyrazolo[3,4-d]pyrimidin-4-one]
≤ 20 | N[C@@H]1c2cccnc2CC12CCN(c1nc3[nH]nc(C4(c5ccccc5)CC4)c3c(=O)[nH]1)CC2 [Example 200, (S)-6-(5-amino-5,7-dihydrospiro[cyclopenta[b]pyridine-6,4′-piperidin]-1-yl)-3-(1-phenylcyclopropyl)-1,5-dihydro-4H-pyrazolo[3,4-d]pyrimidin-4-one]
≤ 20 | N[C@@H]1c2ccccc2CC12CCN(c1nc3[nH]nc(C4=CC(F)(F)c5ccccc54)c3c(=O)[nH]1)CC2 [Example 175, (S)-6-(1-amino-1,3-dihydrospiro[indene-2,4′-piperidin]-1′-yl)-3-(1,1-difluoro-1H-inden-3-yl)-1,5-dihydro-4H-pyrazolo[3,4-d]pyrimidin-4-one]
> 60 | N[C@@H]1COCC12CCN(c1nc3[nH]nc(C4(c5nc6ccccc6[nH]5)CC4)c3c(=O)[nH]1)CC2 [Example 283, (S)-3-(1-(1H-benzo[d]imidazol-2-yl)cyclopropyl)-6-(4-amino-2-oxa-8-azaspiro[4.5]decan-8-yl)-1,5-dihydro-4H-pyrazolo[3,4-d]pyrimidin-4-one]
≤ 20 | CSc1cccc(C2(c3n[nH]c4nc(N5CCC6(CC5)Cc5ccccc5[C@H]6N)[nH]c(=O)c34)CC2)c1 [Example 225, (S)-6-(1-amino-1,3-dihydrospiro[indene-2,4′-piperidin]-1′-yl)-3-(1-(3-(methylthio)phenyl)cyclopropyl)-1,5-dihydro-4H-pyrazolo[3,4-d]pyrimidin-4-one]
20 to 60 | C[C@@H]1OCC2(CCN(c3nc4[nH]nc(C5(c6ccc(N)cc6)CC5)c4c(=O)[nH]3)CC2)[C@@H]1N [Example 299, 6-((3S,4S)-4-amino-3-methyl-2-oxa-8-azaspiro[4.5]decan-8-yl)-3-(1-(4-aminophenyl)cyclopropyl)-1,5-dihydro-4H-pyrazolo[3,4-d]pyrimidin-4-one]
> 60 | C[C@@H]1OCC2(CCN(c3nc4[nH]nc(C5(c6nncs6)CC5)c4c(=O)[nH]3)CC2)[C@@H]1N [Example 280, 3-(1-(1,3,4-thiadiazol-2-yl)cyclopropyl)-6-((3S,4S)-4-amino-3-methyl-2-oxa-8-azaspiro[4.5]decan-8-yl)-1,5-dihydro-4H-pyrazolo[3,4-d]pyrimidin-4-one]
> 60 | C[C@@H]1OCC2(CCN(c3nc(N)c(C4(c5ccccc5)CC4)c(=O)n3C)CC2)[C@@H]1N [Example 264, 6-amino-2-((3S,4S)-4-amino-3-methyl-2-oxa-8-azaspiro[4.5]decan-8-yl)-3-methyl-5-(1-phenylcyclopropyl)pyrimidin-4(3H)-one]
